In ChEMBL document CHEMBL4433255, “Small-molecule agents for the treatment of inflammatory bowel disease” (Bioorg Med Chem Lett, 2019):
Values belong to the compound of their own block, whether it stands above or below them.

How the values were obtained:
Integrin alpha-4/beta-7 = target: T1, Integrin alpha-4/beta-7 (Homo sapiens, UniProt P13612+P26010); experiment: Antagonist activity at integrin alpha4beta7 expressed in human RPMI8866 cells assessed as reduction in cell adhesion to rat MadCAM incubated for 40 to 60 mins by lactate dehydrogenase assay; format: cell-based
T1 sequence (P13612 whole entry): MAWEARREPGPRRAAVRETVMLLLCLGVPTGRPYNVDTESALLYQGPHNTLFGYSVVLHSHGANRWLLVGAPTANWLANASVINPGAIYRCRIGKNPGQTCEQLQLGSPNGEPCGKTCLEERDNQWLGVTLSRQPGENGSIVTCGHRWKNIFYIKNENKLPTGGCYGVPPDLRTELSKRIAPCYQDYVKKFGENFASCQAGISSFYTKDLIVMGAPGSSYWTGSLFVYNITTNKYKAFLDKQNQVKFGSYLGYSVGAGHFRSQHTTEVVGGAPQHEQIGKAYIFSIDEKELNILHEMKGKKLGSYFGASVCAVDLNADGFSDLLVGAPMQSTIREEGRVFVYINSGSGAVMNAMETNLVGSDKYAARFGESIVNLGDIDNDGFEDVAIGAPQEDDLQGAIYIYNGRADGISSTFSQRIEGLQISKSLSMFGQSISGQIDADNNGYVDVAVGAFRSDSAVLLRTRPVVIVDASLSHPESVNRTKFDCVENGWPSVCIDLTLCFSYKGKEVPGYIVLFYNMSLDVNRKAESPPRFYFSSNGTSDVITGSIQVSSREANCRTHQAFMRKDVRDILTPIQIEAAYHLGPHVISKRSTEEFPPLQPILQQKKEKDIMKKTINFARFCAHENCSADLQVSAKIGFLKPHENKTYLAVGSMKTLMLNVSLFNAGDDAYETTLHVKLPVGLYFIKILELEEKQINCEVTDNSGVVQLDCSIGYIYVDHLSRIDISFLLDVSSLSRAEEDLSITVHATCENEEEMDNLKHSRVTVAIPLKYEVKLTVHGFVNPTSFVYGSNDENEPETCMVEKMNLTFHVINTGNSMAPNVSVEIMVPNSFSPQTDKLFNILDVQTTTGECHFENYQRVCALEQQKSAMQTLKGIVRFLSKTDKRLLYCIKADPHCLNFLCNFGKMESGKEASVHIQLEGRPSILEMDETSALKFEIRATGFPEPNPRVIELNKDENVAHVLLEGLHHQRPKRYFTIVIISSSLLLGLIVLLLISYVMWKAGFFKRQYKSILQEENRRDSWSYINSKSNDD
T1 sequence (P26010 whole entry): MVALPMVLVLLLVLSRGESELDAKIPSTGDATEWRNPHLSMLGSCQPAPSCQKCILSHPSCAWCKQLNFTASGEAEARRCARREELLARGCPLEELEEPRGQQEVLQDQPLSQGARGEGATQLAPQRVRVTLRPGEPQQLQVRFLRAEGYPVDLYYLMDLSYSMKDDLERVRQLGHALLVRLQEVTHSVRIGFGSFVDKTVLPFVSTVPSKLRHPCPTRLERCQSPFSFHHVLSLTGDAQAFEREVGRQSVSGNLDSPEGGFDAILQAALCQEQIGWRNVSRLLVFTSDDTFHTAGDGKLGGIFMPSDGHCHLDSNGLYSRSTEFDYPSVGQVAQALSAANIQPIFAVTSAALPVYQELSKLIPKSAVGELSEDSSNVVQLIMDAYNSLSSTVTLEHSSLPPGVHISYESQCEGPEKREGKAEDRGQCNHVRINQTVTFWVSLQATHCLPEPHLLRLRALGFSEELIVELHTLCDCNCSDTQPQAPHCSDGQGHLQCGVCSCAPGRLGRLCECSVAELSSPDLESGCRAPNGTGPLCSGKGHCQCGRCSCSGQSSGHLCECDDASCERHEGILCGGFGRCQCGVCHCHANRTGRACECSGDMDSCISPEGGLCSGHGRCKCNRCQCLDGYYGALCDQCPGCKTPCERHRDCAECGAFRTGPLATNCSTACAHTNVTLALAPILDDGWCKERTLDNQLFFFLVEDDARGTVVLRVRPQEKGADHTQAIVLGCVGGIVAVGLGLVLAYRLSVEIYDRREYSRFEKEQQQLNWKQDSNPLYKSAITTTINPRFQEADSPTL

[1] = Inhibition of IL-10 deficient BALB/c mouse CD4 positive T-cell migration by immunofluorescence method relative to control; format: functional
Mus musculus = experiment: Immunosuppressive activity in BALB/c mouse assessed as inhibition of leukocyte homing to peyer's patches orally dosed by FACS analysis; format: functional, organism-based
Integrin alpha-4/beta-1 = Integrin alpha-4/beta-1 (Homo sapiens, UniProt P05556+P13612); experiment: Antagonist activity at integrin alpha4beta1 expressed in human Jurkat cells assessed as reduction in cell adhesion to human VCAM-1 incubated for 40 to 60 mins by lactate dehydrogenase assay; format: cell-based
[2] = target: Sphingosine 1-phosphate receptor 5 (Homo sapiens, UniProt Q9H228); experiment: Agonist activity at S1P5 (unknown origin) assessed as stimulation of [35S]GTPgammaS binding incubated for 120 mins in presence of GDP by TopCount scintillation counting method; format: functional
Rattus norvegicus = experiment: Antiinflammatory activity in Sprague-Dawley rat model of TNBS-induced colitis assessed as reduction in number of circulating lymphocytes at 0.6 mg/kg, po dosed 2 hrs after TNBS treatment and continued daily for 7 days by gavage and measured up to 24 hrs post treatment relative to control; format: functional; design: scale not given: the % may be the effect or the level left
Homo sapiens [3] = species on record: Homo sapiens; experiment: Selectivity ratio of EC50 for recombinant human BCR-JAK1 expressed in mouse Ba/F3 cells to EC50 for recombinant human TEL-TYK2 expressed in mouse Ba/F3 cells; format: cell-based
[4] = Inhibition of recombinant human BCR-JAK1 expressed in mouse Ba/F3 cells assessed as reduction in pSTAT5 level incubated for 30 mins by AlphaScreen assay; format: cell-based; settings: BaF3, 0.5 h
Homo sapiens [5] = species on record: Homo sapiens; experiment: Selectivity ratio of EC50 for recombinant human BCR-JAK1 expressed in mouse Ba/F3 cells to EC50 for recombinant human TEL-JAK2 expressed in mouse Ba/F3 cells; format: cell-based
Homo sapiens [6] = species on record: Homo sapiens; experiment: Selectivity ratio of EC50 for recombinant human BCR-JAK1 expressed in mouse Ba/F3 cells to EC50 for recombinant human TEL-JAK3 expressed in mouse Ba/F3 cells; format: cell-based
BaF3 = experiment: Inhibition of chemotaxis in mouse BAF3 cells; format: functional, cell-based

Sequence of Integrin alpha-4/beta-1 (P05556 whole entry, one chain of several): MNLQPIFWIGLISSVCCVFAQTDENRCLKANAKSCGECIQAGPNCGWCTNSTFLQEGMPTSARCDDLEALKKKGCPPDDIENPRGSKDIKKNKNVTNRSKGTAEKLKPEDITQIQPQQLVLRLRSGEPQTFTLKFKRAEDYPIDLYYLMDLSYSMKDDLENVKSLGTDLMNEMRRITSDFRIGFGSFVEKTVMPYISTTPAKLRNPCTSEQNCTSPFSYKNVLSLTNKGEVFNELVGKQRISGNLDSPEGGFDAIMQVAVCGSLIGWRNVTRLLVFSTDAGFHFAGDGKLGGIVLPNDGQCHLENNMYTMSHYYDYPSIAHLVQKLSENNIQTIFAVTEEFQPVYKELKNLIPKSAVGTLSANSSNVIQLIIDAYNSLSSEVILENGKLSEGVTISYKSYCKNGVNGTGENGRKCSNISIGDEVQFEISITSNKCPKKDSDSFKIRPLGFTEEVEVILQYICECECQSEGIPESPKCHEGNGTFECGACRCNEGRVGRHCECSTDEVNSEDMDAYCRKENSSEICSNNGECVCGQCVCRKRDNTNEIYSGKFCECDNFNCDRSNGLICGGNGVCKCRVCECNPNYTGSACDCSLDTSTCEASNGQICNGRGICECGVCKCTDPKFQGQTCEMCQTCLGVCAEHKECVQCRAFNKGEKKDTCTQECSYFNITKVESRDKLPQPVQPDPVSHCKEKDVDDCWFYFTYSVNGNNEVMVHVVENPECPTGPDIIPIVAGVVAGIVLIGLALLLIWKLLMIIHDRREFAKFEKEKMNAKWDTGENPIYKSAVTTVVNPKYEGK
Sequence of Sphingosine 1-phosphate receptor 5 (Q9H228 whole entry): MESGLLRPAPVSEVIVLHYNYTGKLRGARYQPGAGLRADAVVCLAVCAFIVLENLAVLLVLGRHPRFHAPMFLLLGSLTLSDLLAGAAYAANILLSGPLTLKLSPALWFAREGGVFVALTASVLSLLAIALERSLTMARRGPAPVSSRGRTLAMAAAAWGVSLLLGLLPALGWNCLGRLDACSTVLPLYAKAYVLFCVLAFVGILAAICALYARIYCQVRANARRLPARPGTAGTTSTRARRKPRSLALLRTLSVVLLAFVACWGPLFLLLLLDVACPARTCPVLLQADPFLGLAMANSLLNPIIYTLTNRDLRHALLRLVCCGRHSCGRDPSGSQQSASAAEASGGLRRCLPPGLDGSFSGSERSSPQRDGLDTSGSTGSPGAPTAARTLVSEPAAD

- EC50 (Integrin alpha-4/beta-7): 1.4 nM
- EC50 (Mus musculus): 180 nM
- EC50 (Integrin alpha-4/beta-1): 5.4 nM
Structure (SMILES): CN(C)c1ccc2c(c1)c(=O)n(-c1ccc(C[C@H](NC(=O)c3c(Cl)cccc3Cl)C(=O)O)cc1)c(=O)n2C
- inhibition (INH) [1]: >95%

- EC50 [2]: 4.3 nM
Structure (SMILES): CC(C)Oc1ccc(-c2nc(-c3cccc4c3CC[C@@H]4NCCO)no2)cc1C#N [OZANIMOD]
- Activity (Rattus norvegicus): 51%

- EC50 [4]: 14 nM
Structure (SMILES): CC[C@@H]1CN(C(=O)NCC(F)(F)F)C[C@@H]1c1cnc2cnc3[nH]ccc3n12 [UPADACITINIB]
- Ratio EC50 (Homo sapiens [3]): 192
- Ratio EC50 (Homo sapiens [5]): 42
- Ratio EC50 (Homo sapiens [6]): 133

- EC50 (BaF3): 2.8 nM
Structure (SMILES): CC(C)(C)c1ccc(S(=O)(=O)Nc2ccc(Cl)cc2C(=O)c2cc[n+]([O-])cc2)cc1 [VERCIRNON]
